Where two headings read alike, the source gives them in different places.
Assays:
Type in all cases: biochemical
[1] = target: T1, D-aminoacylase (Alcaligenes faecalis, UniProt Q9AGH8); assay: Influence of metallic ions on D-aminoacylase activities; details: 1 mM metallic ion, 50 mM Tris-HCl pH 7.8, 30 minutes at 37° C., ninhydrin method
T1 sequence (Q9AGH8 1-484): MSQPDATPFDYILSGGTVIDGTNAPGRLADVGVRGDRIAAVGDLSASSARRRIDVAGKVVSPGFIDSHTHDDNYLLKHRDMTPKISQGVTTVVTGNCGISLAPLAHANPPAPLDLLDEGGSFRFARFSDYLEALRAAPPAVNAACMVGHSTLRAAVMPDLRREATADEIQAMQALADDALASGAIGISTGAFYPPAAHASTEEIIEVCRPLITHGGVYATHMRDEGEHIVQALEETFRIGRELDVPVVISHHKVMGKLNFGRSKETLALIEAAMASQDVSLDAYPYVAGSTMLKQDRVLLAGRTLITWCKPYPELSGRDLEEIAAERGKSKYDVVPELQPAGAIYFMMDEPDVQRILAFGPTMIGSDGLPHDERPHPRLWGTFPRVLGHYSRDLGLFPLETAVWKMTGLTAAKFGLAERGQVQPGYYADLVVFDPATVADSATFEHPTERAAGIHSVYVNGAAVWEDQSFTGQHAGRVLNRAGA

[2] = target: T1, D-aminoacylase; assay: Reagents (inhibitors) influencing the D-aminoacylase activities
[3] = target: T1, D-aminoacylase; assay: Substrate specificity of D-aminoacylase (hydrolysis of N-acyl amino acids, ninhydrin method); details: for Relative Activity D-form: D-form of the substrate, N-acetyl-D-methionine = 100; for Relative Activity L-form: L-form of the substrate, relative to N-acetyl-D-methionine = 100
Description: The activity of D-aminoacylase obtained by the method of this invention may be measured in accordance with Rosen method by using suitable amount of enzyme to decompose N-acetyl-D-methionine, of which the produced D-methionine may be quantitatively measured by D-amino acid oxidase or by ninhydrin method. [Note: H. Rosen, A modified ninhydrin colorimetric analysis for amino acids. Arch. Biochem. Biophys. 67:10-15 (1957)].
The activity unit of enzyme of this invention is defined herewith as the enzyme quantity required for decomposing 10 mM N-acetyl-D-methionine solution for releasing 1μ mole D-methionine per minute at 37° C.
The D-aminoacylase of this invention (hereinafter simply designated as "the acylase") may hydrolyze N-acyl-D-amino acids, but only slightly hydrolyze the N-acyl-L-amino acids.

[4] = 1 mM inhibitor, 50 mM Tris-HCl pH 7.8, 30 minutes at 37° C., ninhydrin method, read-out: Residual activities %

Row | Compound | Residual activities % [1] | Relative Activity D-form [3] | Relative Activity L-form [3] | other results
1 | [Ba+2].[Cl-].[Cl-] [BaCl2] | 99% |  |  | 
2 | [Ca+2].[Cl-].[Cl-] [CaCl2] | 99% |  |  | 
3 | [Cl][Cd][Cl] [CdCl2] | 0% |  |  | 
4 | [Cl-].[Cl-].[Co+2] [CoCl2] | 96% |  |  | 
5 | [Cl][Cu][Cl] [CuCl2] | 15% |  |  | 
6 | O=C(O)CN(CCN(CC(=O)O)CC(=O)O)CC(=O)O [EDTA] |  |  |  | Inhibition of the enzyme by reagent (in words) [2]: inhibited; remaining activity at 1000 µM ([2]; pH 7.8, read-out: Residual activities %): 22%
7 | [Cl][Fe][Cl] [FeCl2] | 60% |  |  | 
8 | [Cl][Hg][Cl] [HgCl2] | 0% |  |  | 
9 | [Cl-].[Cl-].[Mg+2] [MgCl2] | 95% |  |  | 
10 | [Cl][Mn][Cl] [MnCl2] | 70% |  |  | 
11 | CSCC[C@@H](NC(C)=O)C(=O)O [N-acetyl-D-methionine] |  |  |  | Hydrolysis by the acylase (in words) [3]: strongest
12 | CC(=O)N[C@@H](C)C(=O)O [N-acetyl-alanine] |  | 14 | 0.7 | 
13 | CC(=O)N[C@@H](CC(N)=O)C(=O)O [N-acetyl-asparagine] |  | 8 | 0 | 
14 | CC(=O)NC(CC(C)C)C(=O)O (stereo not shown) [N-acetyl-leuoine] |  | 40 | 0.4 | 
15 | CSCC[C@H](NC(C)=O)C(=O)O [N-acetyl-methionine] |  | 100 | 0.8 | 
16 | CC(=O)N[C@@H](Cc1ccccc1)C(=O)O [N-acetyl-phenylalanine] |  | 80 | 0.8 | 
17 | CC(=O)NC(C(=O)O)c1ccccc1 (stereo not shown) [N-acetyl-phenylglycine] |  | 3 | 0 | 
18 | CC(=O)N[C@@H](Cc1c[nH]c2ccccc12)C(=O)O [N-acetyl-tryptophan] |  | 14 | 0 | 
19 | CC(=O)N[C@H](C(=O)O)C(C)C [N-acetyl-valine] |  | 6 | 0 | 
20 | CC(C)[C@H](NC(=O)CCl)C(=O)O [N-chloroacetyl-valine] |  | 42 | 0.6 | 
21 | CCN1C(=O)C=CC1=O [N-ethylmaleimide] |  |  |  | remaining activity at 1000 µM [2, 4]: 36%; Inhibition of the enzyme by reagent (in words) ([2]; 1 mM, 37° C., 30 minutes): inhibited
22 | [Cl][Ni][Cl] [NiCl2] | 89% |  |  | 
23 | [Cl-].[Cl-].[Sr+2] [SrCl2] | 87% |  |  | 
24 | [Cl-].[Cl-].[Zn+2] [Zncl2] | 0% |  |  | 
25 | NC(=O)CI [iodoacetamide] |  |  |  | remaining activity at 1000 µM [2, 4]: 97%
26 | O=C(O)c1cc[c]([Hg][Cl])cc1 [p-chloromercuibenzoic acid] |  |  |  | Residual activities % ([2]; 1 mM inhibitor, 50 mM Tris-HCl pH 7.8, 30 minutes at 37° C., ninhydrin method): 0%; Inhibition of the enzyme by reagent (in words) ([2]; 1 mM, 37° C., 30 minutes): inhibited
27 | O=CC(=O)c1ccccc1 [phenylglyoxal] |  |  |  | remaining activity at 1000 µM [2, 4]: 65%; Inhibition of the enzyme by reagent (in words) ([2]; 1 mM, 37° C., 30 minutes): inhibited

Reference: US5206162A, “Process for making D-aminoacylase” (National Science Council of Republic of China, priority 1991, dated 1993)
